# Source: patent US20060074243A1, “Hydroxamic acid and amide compounds and their use as protease inhibitors” (Pharmacia Corporation, priority 2002, published 2006)
# Key:
# Test in all cases: In vitro MMP inhibition analysis (fluorogenic peptide substrate cleavage), Ki
# Type in all cases: biochemical
# Details in all cases: Table 2
# [1] = molecular target: T1, Human recombinant MMP-9 (Homo sapiens, UniProt P14780)
# T1 construct: made in house; host or cells: MMP-9-transfected HT1080 cells (spent media)
# Procedure, shortened: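 Recombinant MMP-9 purified from transfected HT1080 cell media, activated with APMA, trypsin or recombinant MMP-3, assayed in Tris buffer pH 7.5 with CaCl2 and 4 μM fluorogenic MCA/Dpa peptide, 1 h at room temperature (ex 330/em 420 nm). Ki from Morrison-equation regression of velocity; substrate at or below Km, uncorrected.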
# [2] = molecular target: T2, Human recombinant MMP-1 (Homo sapiens, UniProt P03956)
# T2 construct: made in house; host or cells: MMP-1-transfected HT-1080 cells (spent media)
# T2 sequence (P03956 100-469): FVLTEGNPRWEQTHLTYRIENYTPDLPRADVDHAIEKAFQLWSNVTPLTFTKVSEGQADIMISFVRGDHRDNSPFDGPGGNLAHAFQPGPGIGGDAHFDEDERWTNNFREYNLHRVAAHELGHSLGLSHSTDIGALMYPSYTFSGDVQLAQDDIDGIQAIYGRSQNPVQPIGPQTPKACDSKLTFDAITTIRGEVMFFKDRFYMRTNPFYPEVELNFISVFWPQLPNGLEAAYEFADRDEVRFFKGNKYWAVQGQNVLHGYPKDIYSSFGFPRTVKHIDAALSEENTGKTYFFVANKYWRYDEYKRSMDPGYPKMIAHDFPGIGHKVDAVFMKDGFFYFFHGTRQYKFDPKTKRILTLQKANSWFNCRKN
# Procedure, shortened: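 APMA- or trypsin-activated recombinant human MMP-1 (purified from transfected HT-1080 medium) with 4 μM MCA/Dpa quenched fluorogenic peptide, 1 h at room temperature in Tris/NaCl/CaCl2 buffer pH 7.5; fluorescence ex 330/em 420 nm. Ki from Morrison-equation fit of rates, substrate at or below Km, uncorrected.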
# [3] = molecular target: T3, Human recombinant MMP-2 (Homo sapiens, UniProt P08253)
# T3 construct: made in house; host or cells: MMP-2-transfected p2AHT2 cells
# T3 sequence (P08253 110-660): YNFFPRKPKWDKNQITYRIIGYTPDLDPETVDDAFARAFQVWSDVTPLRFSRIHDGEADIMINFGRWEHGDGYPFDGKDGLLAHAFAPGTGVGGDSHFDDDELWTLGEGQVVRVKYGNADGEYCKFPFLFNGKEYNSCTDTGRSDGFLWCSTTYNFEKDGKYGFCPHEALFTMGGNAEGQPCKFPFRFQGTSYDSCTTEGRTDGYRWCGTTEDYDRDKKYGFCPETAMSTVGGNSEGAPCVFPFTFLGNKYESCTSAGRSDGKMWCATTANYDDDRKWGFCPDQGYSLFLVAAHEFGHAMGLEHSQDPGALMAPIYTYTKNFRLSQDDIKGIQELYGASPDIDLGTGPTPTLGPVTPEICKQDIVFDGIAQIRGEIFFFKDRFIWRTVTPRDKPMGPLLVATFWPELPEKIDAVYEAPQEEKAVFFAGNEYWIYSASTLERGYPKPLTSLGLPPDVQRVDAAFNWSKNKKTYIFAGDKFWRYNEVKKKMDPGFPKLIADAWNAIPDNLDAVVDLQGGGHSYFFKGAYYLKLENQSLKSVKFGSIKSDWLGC
# Procedure, shortened: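 Human recombinant MMP-2 from transfected p2AHT2 cells was activated with APMA or trypsin and incubated 1 h at room temperature with compounds and 4 μM MCA-RPLGL(Dpa)ARER-NH2. Buffer was pH 7.5 Tris/NaCl/CaCl2, and fluorescence was read at ex 330/em 420 nm. Ki was fitted by Morrison's equation without substrate correction.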
# T1 sequence (P14780 107-707 limits assumed): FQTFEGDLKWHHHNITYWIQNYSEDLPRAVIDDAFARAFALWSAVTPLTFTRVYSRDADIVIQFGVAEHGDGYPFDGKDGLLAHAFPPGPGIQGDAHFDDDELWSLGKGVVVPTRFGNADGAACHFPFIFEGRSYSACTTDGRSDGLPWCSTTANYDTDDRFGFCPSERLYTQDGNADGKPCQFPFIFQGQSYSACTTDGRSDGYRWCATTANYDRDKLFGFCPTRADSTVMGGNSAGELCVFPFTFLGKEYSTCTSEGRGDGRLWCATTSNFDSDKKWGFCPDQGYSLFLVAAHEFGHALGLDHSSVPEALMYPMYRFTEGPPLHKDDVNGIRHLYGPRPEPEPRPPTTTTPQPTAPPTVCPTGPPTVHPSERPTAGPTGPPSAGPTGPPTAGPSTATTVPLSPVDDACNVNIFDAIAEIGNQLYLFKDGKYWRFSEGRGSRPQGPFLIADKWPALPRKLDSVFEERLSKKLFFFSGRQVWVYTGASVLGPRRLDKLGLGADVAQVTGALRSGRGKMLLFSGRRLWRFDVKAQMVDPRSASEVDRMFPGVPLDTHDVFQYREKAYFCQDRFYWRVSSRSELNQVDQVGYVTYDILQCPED
SMILES,Ki [1] [nM],Ki [2] [nM],Ki [3] [nM]
O=C(NO)C1(S(=O)(=O)c2ccc(-c3cnccn3)cc2)CCOCC1 [Example 71],42.8,2960,5.96
COCCN1CCC(C(=O)NO)(S(=O)(=O)c2ccc(-c3ccc(OCCN4CCCC4)cc3)cc2)CC1 [Example 72],12.9,> 10000,5.81
O=C(NO)C1(S(=O)(=O)c2ccc(-c3ccc(CCO)cc3)cc2)CCOCC1 [Example 98],3.1,990,0.158
CC(C)CCc1ccc(-c2ccc(S(=O)(=O)C3(C(=O)NO)CCOCC3)cc2)nc1 [Example 99],0.211,3080,0.112
COC(C)CCOc1ccc(-c2ccc(S(=O)(=O)C3(C(=O)NO)CCOCC3)cc2)cc1C(F)(F)F (stereo not drawn) [Example 100],849,> 10000,32.5
CCCCCc1ccc(-c2ccc(S(=O)(=O)C3(C(=O)NO)CCOCC3)cc2)c(F)c1 [Example 101],3.05,9030,0.878
COc1ccc(-c2ccc(S(=O)(=O)C3(C(=O)NO)CCOCC3)cc2)cc1F [Example 102],1.01,669,0.078
CC(C)Cc1ccc(-c2ccc(S(=O)(=O)C3(C(=O)NO)CCOCC3)cc2)nc1 [Example 103],1.38,2320,0.278
O=C(NO)C1(S(=O)(=O)c2ccc(-c3ccc(-c4ccccc4)cc3)cc2)CCOCC1 [Example 104],0.074,6910,0.087
CCCCc1nc(-c2ccc(S(=O)(=O)C3(C(=O)NO)CCOCC3)cc2)no1 [Example 105],2.15,> 10000,5.79
CC(C)CCOc1ccc(-c2ccc(S(=O)(=O)C3(C(=O)NO)CCOCC3)cc2)cc1 [Example 108],2.29,2120,0.497
CCN1CCC(C(=O)NO)(S(=O)(=O)c2ccc(-c3ccc(OCCOC)c(F)c3)cc2)CC1 [Example 110],11.2,> 10000,0.539
CCN1CCC(C(=O)NO)(S(=O)(=O)c2ccc(-c3ccc(OCCOC)cc3)cc2)CC1 [Example 111],3.3,7360,0.645
COCCOc1ccc(-c2ccc(S(=O)(=O)C3(C(=O)NO)CCN(C4CC4)CC3)cc2)cc1F [Example 112],2.21,8580,0.168
COCCOc1ccc(-c2ccc(S(=O)(=O)C3(C(=O)NO)CCN(C4CC4)CC3)cc2)cc1 [Example 113],0.732,2910,0.17
COCCOc1ccc(-c2ccc(S(=O)(=O)C3(C(=O)NO)CCN(CCOC)CC3)cc2)cc1F [Example 114],2.77,6550,0.217
COCCOc1ccc(-c2ccc(S(=O)(=O)C3(C(=O)NO)CCN(CCOC)CC3)cc2)cc1 [Example 115],1.22,3370,0.276
CCOCCOc1ccc(-c2ccc(S(=O)(=O)C3(C(=O)NO)CCN(CC)CC3)cc2)cc1 [Example 116],9.39,8940,0.514
CCOCCOc1ccc(-c2ccc(S(=O)(=O)C3(C(=O)NO)CCN(CCOC)CC3)cc2)cc1 [Example 117],3.93,4900,0.208
